Experimental data taken from patent US8927530B2, “Therapeutic combination comprising a PLK1 inhibitor and an antineoplastic agent” (priority 2009, dated 2015).
Read-outs that look alike come from different tables or passages of the source.

Experiments:
[1] = system: HT29 human colon cancer tumors; details: for T-C: delay to reach 1 g tumor
Experimental: Balb, Nu/Nu male mice, from Harlan (Italy), were maintained, in agreement with the European Communities Council Directive no.
(§1) Fragments of HT29 human colon cancer tumors were implanted subcutaneously. The treatment started when tumors were palpable. […] Tumor growth and body weight were measured every 3 days. Tumor growth was assessed by caliper. The two diameters were recorded and the tumor weight was calculated according to the following formula: length (mm)×width^2/2. […] This delay (T-C value) was defined as the difference of time (in days) required for the treatment group (T) and the control group (C) tumors to reach a predetermined size (1 g). Sinergy was identified when T-C of drug combination is >of addition of T-C value of single agents.
(§2) Toxicity was evaluated on the basis of body weigh reduction.

[2] = system: HT29 human colon cancer tumors; assay: In vivo activity of combination with bevacizumab, HT29 tumors implanted subcutaneously; details: for T-C: delay to reach 1 g tumor
[3] = system: HT29 human colon cancer tumors; details: for T-C: delay to reach 1 g tumor; remark: listed apart in the source
Experimental: as §1, with “Balb, Nu/Nu male mice, from Harlan (Italy), were maintained, in agreement with the European Communities Council Directive no. […] Fragments” for “Fragments”, “single agents, additivity is identified when T-C value of drug combination is equal to addition of T-C value of single” for “single”
as §2

[4] = system: AML-PS acute myeloid leukaemia cells; details: for Median Survival Time: Control 34
Experimental: SCID female mice, from Harlan (Italy), were maintained, in agreement with the European Communities Council Directive no. […] 5×10^6 in 0.2 ml AML-PS acute myeloid leukaemia cells were injected intravenously in mice.
Cytarabine was administered by intraperitoneal route at the dose of 75 mg/kg on days 2, 3, 4, 5, 6, 14, 15, 16, 17, 18, 26, 27, 28, 29, 30, 38, 39, 40, 41 42. […] Body weight was measured every 3 days. The effect of the antitumor treatment was evaluated determining the Median Survival Time of treated animals respect to control group.

[5] = Compound of formula (I) 45 mg/kg oral, day 2, 3, 4, 6, 7, 8
[6] = male, Balb Nu/Nu, mouse, in vivo, po, 45 mg/kg

CN1CCN(c2ccc(OC(F)(F)F)c(Nc3ncc4c(n3)-c3c(c(C(N)=O)nn3CCO)CC4)c2)CC1 [Compound of formula (I)]
T-C [1, 5]: 10.3 days
Toxicity [1, 6]: 0/7
T-C ([2]; Compound of formula (I) 45 mg/kg oral, day 2, 3, 4, 6, 7, 8, 10, 11, 12): 8.5 days
T-C ([2]; Compound of formula (I) 60 mg/kg oral, day 2, 3, 4, 6, 7, 8, 10, 11, 12): 16.8 days
Toxicity [2, 6]: 0/7
Toxicity ([2]; male, Balb Nu/Nu, mouse, in vivo, po, 60 mg/kg): 0/7
T-C [3, 5]: 10.3 days
Toxicity [3, 6]: 0/7
Median Survival Time ([4]; Compound of formula (I) 120 mg/kg oral, day 2, 3, 14, 15, 26, 27, 38, 39): 49.5
Toxicity ([4]; female, SCID, mouse, in vivo, po, 120 mg/kg): 0/7

bevacizumab [reference compound]
Toxicity ([2]; Bevacizumab 20 mg/kg, intravenous route (footnote), days 1, 5, 9, 13, body weight reduction): 0/7
T-C ([2]; Bevacizumab 20 mg/kg, intravenous route (footnote), days 1, 5, 9, 13): 4.7 days

CCc1c2c(nc3ccc(OC(=O)N4CCC(N5CCCCC5)CC4)cc13)-c1cc3c(c(=O)n1C2)COC(=O)[C@]3(O)CC [CPT11, reference compound]
T-C ([1]; CPT11 45 mg/kg intravenous, days 1, 5, 9): 12.3 days

Nc1ccn([C@@H]2O[C@H](CO)[C@@H](O)[C@@H]2O)c(=O)n1 [Cytarabine, cytarabine, reference compound]
Median Survival Time ([4]; cytarabine 75 mg/kg intraperitoneal, days 2-6, 14-18, 26-30, 38-42): 66.5

O=c1[nH]cc(F)c(=O)[nH]1 [5FU, 5-fluorouracil, reference compound]
T-C ([3]; 5FU 50 mg/kg intravenous, days 1, 5, 9): 11.4 days
